These results are taken from patent US4239744A, “Radioreceptor assay for benzodiazepines in plasma and other biological specimens” (United States of America, priority 1978, dated 1980).

Structures are written as SMILES.

The assay relates to binding sites for [^3 H] diazepam (benzodiazepine receptor), rat cerebral cortex synaptosomal membranes. As to the kind of experiment: Radioreceptor assay: inhibition of [3H]diazepam binding to rat synaptosomal membranes by drugs dissolved in plasma. The note with it: for plasma concentration that could be reliably measured by inhibition of [3H]diazepam binding: benzodiazepine dissolved in plasma, assayed in triplicate, from standard curve in figure; for potency rank among the benzodiazepines tested in inhibiting [3H]diazepam binding: four benzodiazepines: clonazepam, N-demethyldiazepam, flurazepam. On the procedure:
Blood samples to be assayed are drawn into heparinized tubes and the plasma then separated therefrom by centrifugation at […]. Two-hundred μl of plasma is then pipetted into microtubes, e.g., Eppendorf Microtubes (Brinkman Instruments, Westbury, N.Y.) and diluted 1:10 with water. Samples are mixed by inversion and the plasma precipitated with 50 μl of perchloric acid. The samples are then vortexed briefly and centrifuged in a microcentrifuge, e.g., an Eppendorf Microfuge (Brinkman Instruments, Westbury, N.Y.), for three minutes. Twenty-five μl of the clear supernatant is withdrawn and added to 375 μl of distilled water in 16×125 mm glass tubes. Assays are thereafter performed at 0°-4° C. as follows:
The incubation is terminated after 15 min with a 5 ml wash of ice-cold […] Tris buffer (2-amino-2-hydroxymethyl-1,3-propanediol) at pH 7.4, and immediately filtered through Whatman GF/B filters in a filtering device, e.g., a Millepore filtering bank (Model 1225, Millipore Corp., Bedford, Mass.) The filters are immediately washed with an additional 5 ml of ice-cold buffer. The filters are airdried and suspended in a scintillation fluor, e.g., in 10 ml "Aquasol" (New England Nuclear, Boston, Mass.) and the radiation measured in a liquid scintillation counter, e.g., a Beckman LS-355 liquid scintillation counter.
Standard curves were constructed by adding known amounts of benzodiazepine to plasma, diluting the plasma (1:5 or 1:10) with water, and proceeding in an identical manner to unknown samples. […] The percent inhibition of specific binding by plasma samples is defined as: [formula] […] The slope and intercept of these lines were determined by least mean squares regression analysis and the benzodiazepine concentrations in unknown plasma samples computed from these values.
The synaptosomal membranes suspension described above is prepared as follows:
(a) homogenize rat brains in 20 volumes of ice-cold 0.32 M sucrose (using a Potter-Elvehjern homogenizer);
(b) centrifuge the resulting suspension obtained in step (a) at 1000×g for 10 minutes;
(c) centrifuge the supernatent obtained in step (b) at 20,000×g for 20 minutes; and
(d) resuspend the pellet obtained in step (c) in 40 volumes of Tris buffer to a final protein concentration of approximately 1 mg/ml.

`O=C1CN=C(c2ccccc2Cl)c2cc([N+](=O)[O-])ccc2N1` [Clonazepam, clonazepam]: the “plasma concentration that could be reliably measured by inhibition of [3H]diazepam binding” value came out at 10 ng/mL and the “potency rank among the benzodiazepines tested in inhibiting [3H]diazepam binding” value is on record as “most potent”.
For the compound `O=C1CN=C(c2ccccc2)c2cc(Cl)ccc2N1` [N-demethyldiazepam], the “potency in inhibiting [3H]diazepam binding relative to the parent compound diazepam” value (from standard curves in figure) is listed as “about 85%”.
On to `CCN(CC)CCN1C(=O)CN=C(c2ccccc2F)c2cc(Cl)ccc21` [flurazepam], for which the “plasma concentration that could be reliably measured by inhibition of [3H]diazepam binding” value is “approximately 100 ng/ml” and the “potency rank among the benzodiazepines tested in inhibiting [3H]diazepam binding” value was “least potent”.
